Assay results as given in patent publication US12168012B2, “NLRP3 inflammasome inhibitors” (Novartis AG, priority 2018, dated 2024).

Columns and labels:
NLRP3 inflammasome = experiment: IL-1β secretion assay; assay type: cell-based; conditions: Homo sapiens, THP-1, 3 h, PMA-differentiated THP-1 cells, 15 μM nigericin, HTRF
How it was run: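 PMA-differentiated THP-1 cells stimulated with nigericin to trigger NLRP3-dependent IL-1β secretion, measured by HTRF after 3 h. Viability/pyroptosis monitored with PrestoBlue. IC50 from logistic fit of % inhibition vs concentration with Hill coefficient.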

[1] = tested on: NF-kB-dependent TNF-α secretion; experiment: TNF-α secretion assay (counterscreen); assay type: cell-based; conditions: Homo sapiens; THP-1 cells, Pam3CSK4-stimulated, 3 hours, HTRF
Protocol: Monocytic THP-1 cells were maintained according to providers' instructions in RPMI media as described above. Undifferentiated cells were plated at 50,000 cells per well in a 384-well flat-bottom cell culture plates (Greiner, #781986), and allowed to rest overnight. Experimental compounds were prepared and added as described above. TNF-α secretion was triggered by the addition of either 1 μg/mL LPS (Sigma, #L4391) or 100 ng/mL Pam3CSK4 (Invivogen, #tlrl-pms) depending on the experiment, and cells were incubated for 3 hours. 10 μL supernatant was removed, and TNF-α levels were monitored using an HTRF assay (CisBio, #62TNFPEC) according to manufacturers' instructions. Viability was monitored as described above.
IC50 values were calculated from the plot of percentage of inhibition versus the inhibitor concentration by a logistics fit according to: y=A2+(A1−A2)/(1+(x/IC50)^p) where y is the %-inhibition at the inhibitor concentration, x. A1 is the lowest inhibition value, i.e. 0%, and A2 the maximum inhibition value, i.e. 100%. The exponent, p, is the Hill coefficient. The curve fitting was conducted with an internally developed software suite. […]

Compound | IC50 (NLRP3 inflammasome) | IC50 [1]
CC(C)(O)c1nn(CC(=O)Nc2ccncn2)c(=O)c2cc3sc(Cl)cc3n12 [Ex 9, 2-(2-Chloro-5-(2-hydroxypropan-2-yl)-8-oxothieno[2′,3′:4,5]pyrrolo[1,2-d][1,2,4]triazin-7(8H)-yl)-N-(pyrimidin-4-yl)acetamide] | 7.9 nM | > 100000 nM
CC(C)c1nn(CC(=O)N[C@@H]2CCCN(C[C@@H](C)O)C2)c(=O)c2cc3sc(Cl)cc3n12 [Ex 128, 2-(2-Chloro-5-isopropyl-8-oxothieno[2′,3′:4,5]pyrrolo[1,2-d][1,2,4]triazin-7(8H)-yl)-N—((R)-1-((R)-2-hydroxypropyl)piperidin-3-yl)acetamide] | 4.5 nM | > 100000 nM
CC(C)c1nn(CC(=O)N[C@@H]2C[C@@H]2F)c(=O)c2cc3sc(Cl)cc3n12 [Ex 52, 2-(2-Chloro-5-isopropyl-8-oxothieno[2′,3′:4,5]pyrrolo[1,2-d][1,2,4]triazin-7(8H)-yl)-N-((1R,2S)-2-fluorocyclopropyl)acetamide] | 660 nM | > 100000 nM
CC(O)c1nn(CC(=O)Nc2cccnc2)c(=O)c2cc3sc(Cl)cc3n12 (stereo not drawn) [Ex 42, 2-(2-Chloro-5-(1-hydroxyethyl)-8-oxothieno[2′,3′:4,5]pyrrolo[1,2-d][1,2,4]triazin-7(8H)-yl)-N-(pyridin-3-yl)acetamide] | 1100 nM | > 100000 nM
CC(C)(O)c1nn(CC(=O)N[C@@H]2CCCNC2)c(=O)c2cc3sc(Cl)cc3n12 [Ex 79, (R)-2-(2-Chloro-5-(2-hydroxypropan-2-yl)-8-oxothieno[2′,3′:4,5]pyrrolo[1,2-d][1,2,4]triazin-7(8H)-yl)-N-(piperidin-3-yl)acetamide] | 244 nM | > 100000 nM
CN1CCC[C@@H](NC(=O)Cn2nc(C3CC3)n3c(cc4sc(Cl)cc43)c2=O)C1 [Ex 37, (R)-2-(2-Chloro-5-cyclopropyl-8-oxothieno[2′,3′:4,5]pyrrolo[1,2-d][1,2,4]triazin-7(8H)-yl)-N-(1-methylpiperidin-3-yl)acetamide] | 101 nM | > 100000 nM
CC(C)(O)c1nn(CC(=O)N[C@@H]2CCCN(CC(F)(F)F)C2)c(=O)c2cc3sc(Cl)cc3n12 [Ex 82, (R)-2-(2-Chloro-5-(2-hydroxypropan-2-yl)-8-oxothieno[2′,3′:4,5]pyrrolo[1,2-d][1,2,4]triazin-7(8H)-yl)-N-(1-(2,2,2-trifluoroethyl)piperidin-3-yl)acetamide] | 42.2 nM | > 100000 nM
CC(C)(O)c1nn(CC(=O)NC2CC2)c(=O)c2cc3sc(Cl)cc3n12 [Ex 62, 2-(2-Chloro-5-(2-hydroxypropan-2-yl)-8-oxothieno[2′,3′:4,5]pyrrolo[1,2-d][1,2,4]triazin-7(8H)-yl)-N-cyclopropylacetamide] | 76.1 nM | > 100000 nM
CC(C)(O)c1nn(CC(=O)N[C@@H]2CCC[C@H](O)C2)c(=O)c2cc3sc(Cl)cc3n12 [Ex 81, 2-(2-Chloro-5-(2-hydroxypropan-2-yl)-8-oxothieno[2′,3′:4,5]pyrrolo[1,2-d][1,2,4]triazin-7(8H)-yl)-N-((1R,3S)-3-hydroxycyclohexyl)acetamide] | 3.9 nM | > 100000 nM
CC(C)c1nn(CC(=O)N[C@H]2CCOC2)c(=O)c2cc3sc(Cl)cc3n12 [Ex 99, (S)-2-(2-Chloro-5-isopropyl-8-oxothieno[2′,3′:4,5]pyrrolo[1,2-d][1,2,4]triazin-7(8H)-yl)-N-(tetrahydrofuran-3-yl)acetamide] | 537 nM | > 100000 nM
CC(C)c1nn(CC(=O)NC[C@@H](C)O)c(=O)c2cc3sc(Cl)cc3n12 [Ex 70, (R)-2-(2-Chloro-5-isopropyl-8-oxothieno[2′,3′:4,5]pyrrolo[1,2-d][1,2,4]triazin-7(8H)-yl)-N-(2-hydroxypropyl)acetamide] | 34.9 nM | > 100000 nM
CC(C)c1nn(CC(=O)N[C@@H]2CCC[C@@H](O)C2)c(=O)c2cc3scnc3n12 [Ex 47, N-((1R,3R)-3-Hydroxycyclohexyl)-2-(5-isopropyl-8-oxothiazolo[5′,4′:4,5]pyrrolo[1,2-d][1,2,4]triazin-7(8H)-yl)acetamide] | 9.1 nM | > 100000 nM
CC(C)c1nn(CC(=O)Nc2ccncn2)c(=O)c2cc3sc(F)cc3n12 [Ex 6, 2-(2-Fluoro-5-isopropyl-8-oxothieno[2′,3′:4,5]pyrrolo[1,2-d][1,2,4]triazin-7(8H)-yl)-N-(pyrimidin-4-yl)acetamide] | 6.5 nM | > 100000 nM
CC(C)c1nn(CC(=O)NC23CC4CC(CC(O)(C4)C2)C3)c(=O)c2cc3sc(Cl)cc3n12 [Ex 114, 2-(2-Chloro-5-isopropyl-8-oxothieno[2′,3′:4,5]pyrrolo[1,2-d][1,2,4]triazin-7(8H)-yl)-N-((1S,3R,5S)-3-hydroxyadamantan-1-yl)acetamide] | 298 nM | > 11000 nM
Cc1cc2c(cc3c(=O)n(CC(=O)Nc4cccnc4)nc(C(C)C)n32)s1 [Ex 7, 2-(5-Isopropyl-2-methyl-8-oxothieno[2′,3′:4,5]pyrrolo[1,2-d][1,2,4]triazin-7(8H)-yl)-N-(pyridin-3-yl)acetamide] | 254 nM | > 100000 nM
Cc1nc2c(cc3c(=O)n(CC(=O)NC4CC4)nc(C(C)C)n32)s1 [Ex 96, N-Cyclopropyl-2-(5-isopropyl-2-methyl-8-oxothiazolo[5′,4′:4,5]pyrrolo[1,2-d][1,2,4]triazin-7(8H)-yl)acetamide] | 1040 nM | > 33000 nM
CN1CCC[C@@H](NC(=O)Cn2nc(C3CC3)n3c(cc4sc(F)cc43)c2=O)C1 [Ex 35, (R)-2-(5-Cyclopropyl-2-fluoro-8-oxothieno[2′,3′:4,5]pyrrolo[1,2-d][1,2,4]triazin-7(8H)-yl)-N-(1-methylpiperidin-3-yl)acetamide] | 48.1 nM | 40000 nM
CC(C)c1nn(CC(=O)N[C@@H]2CCC[C@@](C)(O)C2)c(=O)c2cc3scnc3n12 [Ex 90, N-((1R,3R)-3-Hydroxy-3-methylcyclohexyl)-2-(5-isopropyl-8-oxothiazolo[5′,4′:4,5]pyrrolo[1,2-d][1,2,4]triazin-7(8H)-yl)acetamide] | 60.8 nM | > 100000 nM
CC(C)c1nn(CC(=O)N[C@@H]2CCCN(CC3(O)CCC3)C2)c(=O)c2cc3sc(Cl)cc3n12 [Ex 131, (R)-2-(2-Chloro-5-isopropyl-8-oxothieno[2′,3′:4,5]pyrrolo[1,2-d][1,2,4]triazin-7(8H)-yl)-N-(1-((1-hydroxycyclobutyl)methyl)piperidin-3-yl)acetamide] | 17.9 nM | > 33000 nM
Cc1cc2c(cc3c(=O)n(CC(=O)NC4CC4)nc(C(C)C)n32)s1 [Ex 41, N-Cyclopropyl-2-(5-isopropyl-2-methyl-8-oxothieno[2′,3′:4,5]pyrrolo[1,2-d][1,2,4]triazin-7(8H)-yl)acetamide] | 1170 nM | > 100000 nM
CC(C)c1nn(CC(=O)N[C@@H]2CCCN(CCO)C2)c(=O)c2cc3sc(Cl)cc3n12 [Ex 133, (R)-2-(2-Chloro-5-isopropyl-8-oxothieno[2′,3′:4,5]pyrrolo[1,2-d][1,2,4]triazin-7(8H)-yl)-N-(1-(2-hydroxyethyl)piperidin-3-yl)acetamide] | 20.5 nM | > 100000 nM
CC(C)c1nn(CC(=O)N[C@H]2CCC[C@@H](C(=O)O)C2)c(=O)c2cc3sc(Cl)cc3n12 [Ex 55, (1R,3S)-3-(2-(2-Chloro-5-isopropyl-8-oxothieno[2′,3′:4,5]pyrrolo[1,2-d][1,2,4]triazin-7(8H)-yl)acetamido)cyclohexane-1-carboxylic acid] | 843 nM | > 100000 nM
CC(C)c1nn(CC(=O)N[C@@H]2CCNC2)c(=O)c2cc3sc(Cl)cc3n12 [Ex 103, (R)-2-(2-Chloro-5-isopropyl-8-oxothieno[2′,3′:4,5]pyrrolo[1,2-d][1,2,4]triazin-7(8H)-yl)-N-(pyrrolidin-3-yl)acetamide] | 190 nM | > 100000 nM
CC(C)c1nn(CC(=O)N[C@H]2C[C@@](C)(O)C2)c(=O)c2cc3sc(Cl)cc3n12 [Ex 72, 2-(2-Chloro-5-isopropyl-8-oxothieno[2′,3′:4,5]pyrrolo[1,2-d][1,2,4]triazin-7(8H)-yl)-N-((1s,3s)-3-hydroxy-3-methylcyclobutyl)acetamide] | 0.4 nM | > 100000 nM
CC(C)c1nn(CC(=O)NC2(CO)CC2)c(=O)c2cc3sc(Cl)cc3n12 [Ex 111, 2-(2-Chloro-5-isopropyl-8-oxothieno[2′,3′:4,5]pyrrolo[1,2-d][1,2,4]triazin-7(8H)-yl)-N-(1-(hydroxymethyl)cyclopropyl)acetamide] | 111 nM | > 100000 nM
Cc1cc2c(cc3c(=O)n(CC(=O)N[C@@H]4CCC(=O)NC4)nc(C(C)C)n32)s1 [Ex 39, (R)-2-(5-Isopropyl-2-methyl-8-oxothieno[2′,3′:4,5]pyrrolo[1,2-d][1,2,4]triazin-7(8H)-yl)-N-(6-oxopiperidin-3-yl)acetamide] | 540 nM | > 100000 nM
CC(C)c1nn(CC(=O)N[C@@H]2CCCN(CC3CC3)C2)c(=O)c2cc3sc(Cl)cc3n12 [Ex 134, (R)-2-(2-Chloro-5-isopropyl-8-oxothieno[2′,3′:4,5]pyrrolo[1,2-d][1,2,4]triazin-7(8H)-yl)-N-(1-(cyclopropylmethyl)piperidin-3-yl)acetamide] | 0.7 nM | > 100000 nM
